Laboratory results from PubChem BioAssay (NCI).
Where “and” joins values, the source holds several entries; their conditions need not be identical. Equal entries are not always repeated.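 1) Cells in 96-well plates. 2) Compound, 48 h, 5 concentrations. 3) Linear interpolation between surrounding doses. 4) Unreached endpoint = highest concentration. GI50 is the concentration that inhibits growth by half. TGI: total growth inhibition.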

Experiments:
Test in all cases: NCI anticancer screen, dose series, 48 h
ACHN renal = system: ACHN renal
CCRF-CEM leukemia = system: CCRF-CEM leukemia
HT29 colon = system: HT29 colon
OVCAR-4 ovarian = system: OVCAR-4 ovarian
OVCAR-5 ovarian = system: OVCAR-5 ovarian
OVCAR-8 ovarian = system: OVCAR-8 ovarian
SF-295 CNS = system: SF-295 CNS
SNB-75 CNS = system: SNB-75 CNS
U251 CNS = system: U251 CNS
UACC-257 melanoma = system: UACC-257 melanoma

Row | SMILES | GI50 (ACHN renal) [µM] | TGI (ACHN renal) [µM] | GI50 (CCRF-CEM leukemia) [µM] | TGI (CCRF-CEM leukemia) [µM] | GI50 (HT29 colon) [µM] | TGI (HT29 colon) [µM] | GI50 (OVCAR-4 ovarian) [µM] | TGI (OVCAR-4 ovarian) [µM] | GI50 (OVCAR-5 ovarian) [µM] | TGI (OVCAR-5 ovarian) [µM] | GI50 (OVCAR-8 ovarian) [µM] | TGI (OVCAR-8 ovarian) [µM] | GI50 (SF-295 CNS) [µM] | TGI (SF-295 CNS) | GI50 (SNB-75 CNS) [µM] | TGI (SNB-75 CNS) | GI50 (U251 CNS) [µM] | TGI (U251 CNS) [µM] | GI50 (UACC-257 melanoma) [µM] | TGI (UACC-257 melanoma) [µM]
1 | Cc1cc(=O)n2[nH]c(-c3ccc(C(C)(C)C)cc3)cc2n1 | 5.65 | > 100 | 4.19 | > 100 | 5.12 | > 100 | 12.7 | > 100 | 17.7 | > 100 | 11.2 | > 100 | 2.47 | 22.7 µM | 7.9 | 46.8 µM | 3.24 | 64.5 | 4.32 | 49.6
2 | O=C(Nc1ccc(F)cc1F)c1cc(I)ccc1O | 2.5 | 7.62 | 4.05 | > 100 | 4.06 | > 100 | 2.49 | – | 3.72 | > 100 | 3.23 | > 100 | 1.95 | 3.94 µM | 1.36 | 4.58 µM | 3.07 | > 100 | 2.09 | 7.09
3 | Fc1ccc(Nc2ncnc3ccc(-c4cnc5[nH]ccc5c4)cc23)cc1Cl | 0.602 | 2.49 | 7.83 | > 100 | 2.05 | > 25.1 | 1.51 | 3.92 | 2.13 | 10.6 | 2.94 | 14.9 | 2.73 | 11.2 µM | 1.23 | 3.42 µM | 2.17 | 6.2 | 13.5 | > 100
4 | CC1(C)COC(c2ccc(C(F)(F)F)cc2C(O)c2ccc3ccccc3c2)=N1 (stereo not drawn) | > 100 | > 100 | > 100 | > 100 | – | > 10 | > 100 | > 100 | > 100 | > 100 | > 100 | > 100 | > 10 | > 10 µM and 42.5 µM | > 10 | > 10 µM and 37.9 µM | > 100 | > 100 | > 100 | > 100
5 | O=c1cc(-c2cccc(O)c2)[nH]c2cc3c(cc12)OCO3 | – | > 100 | – | > 100 | – | > 100 | – | > 100 | – | > 100 | – | > 29.7 | – | > 100 µM | – | 20.5 µM | – | > 36.5 | – | > 100
6 | CCOC(=O)Nc1nc2ccc(OCC)cc2s1 | > 100 | > 100 | > 100 | > 100 | 3.98 | > 100 | > 82.5 | > 100 | > 100 | > 100 | 47.7 | > 100 | > 100 | > 100 µM | 22.7 | > 100 µM | 25.5 | > 100 | > 100 | > 100
7 | CCCCCCCCSC1=CC(=O)c2nc3ccccc3c3ccnc1c23 | 52.2 | > 100 | 60.7 | > 100 | > 100 | > 100 | 19.1 | > 100 | > 100 | > 100 | > 100 | > 100 | > 100 | > 100 µM | > 100 | > 100 µM | 92.6 | > 100 | 41.1 | > 100
8 | Cc1cc(=O)[nH]c(NNC(C#N)c2cccc(O)c2)n1 (stereo not drawn) | – | > 100 | – | > 100 | – | > 100 | – | > 100 | – | > 100 | – | > 100 | – | > 100 µM | – | > 100 µM | – | > 100 | – | > 100
9 | O=C1C2=C(SCCS2)C(=O)c2ccccc21 | – | 3.05 | – | 4.2 | – | 4.44 | – | 3.01 | – | 3.23 | – | 3.04 | – | 3.14 µM | – | 3.03 µM | – | 3.02 | – | 3.45
